Reference: article PMC11322497 (Frontiers in Pharmacology, 2024)

Tests used:
[1] = Plasma free selvigaltin pharmacokinetics, acute 5-day treatment; assay type: in vivo, rabbit
Source text: The dose employed was established based on pilot pharmacokinetics studies in rabbits performed historically in naïve rabbits (data not shown). This first part of the study allowed the determination of the therapeutic benefits of selvigaltin following acute treatment, thus validating the model for further investigation of this mechanism in a chronic treatment protocol.
(§1) After 1 week of standard diet, animals (n = 12) were randomly assigned to the following groups (Table 1A): • Control rabbits continued to receive a regular diet (RD) for 12 weeks and were treated for 5 days (days 1–5, p.o.), during the last week before culling, with either vehicle; RD+1W Veh group] or GB1211 (30 mg/kg; RD + 1W 30 mg group); • Rabbits received a high fat diet (HFD) for 12 weeks (RD implemented with 0.5% cholesterol and 2.5% vegetable fat) and were treated for 5 days (days 1–5, p.o.), during the last week before culling, with either vehicle (HFD + 1W Veh group) or GB1211 (30 mg/kg; HFD + 1W 30 mg group).
Liver homogenates were prepared by homogenisation of 200 mg liver tissue/ml water using a Fisherbrand™ Homogenizer 150 (Thermo Fisher Scientific, Waltham, MA). Plasma or liver homogenate were mixed 1 part matrix with 3 parts acetonitrile prior to centrifugation at 10,000 g for 10 min at 18°C with supernatant diluted x4 with water prior to LC-MS/MS analysis.

[2] = Plasma and liver selvigaltin concentrations after 4 weeks of treatment; assay type: in vivo; details: New Zealand White, rabbit, oral, HFD rabbits, 0.3, 1.0, 5.0 mg/kg, read-out: increased levels in liver tissue vs plasma
Description: After 1 week (W) of RD, the animals (n = 44) were randomly assigned to the following groups (Table 1B): • Control rabbits continued to receive a RD for 12 weeks and were treated with vehicle for 5 days a week (days 1–5, p.o.) during the last 4 weeks before culling (RD + 4W Veh group); • Rabbits received a HFD for 8 weeks and were culled (HFD 8W group); • Rabbits received a HFD for 12 weeks and were treated with vehicle for 5 days a week (days 1–5, p.o.) during the last 4 weeks before culling (HFD+4W Veh group); • Rabbits received a HFD for 12 weeks and were treated with GB1211 (0.3 mg/kg) for 5 days a week (days 1–5, p.o.) during the last 4 weeks before culling (HFD + 4W 0.3 mg group); • Rabbits received a HFD for 12 weeks and were treated with GB1211 (1.0 mg/kg) for 5 days a week (days 1–5, p.o.) during the last 4 weeks before culling (HFD + 4W 1.0 mg group); • Rabbits received a HFD for 12 weeks and were treated with GB1211 (5.0 mg/kg) for 5 days a week (days 1–5, p.o.) during the last 4 weeks before culling (HFD + 4W 5.0 mg group).
Liver homogenates were prepared by homogenisation of 200 mg liver tissue/ml water using a Fisherbrand™ Homogenizer 150 (Thermo Fisher Scientific, Waltham, MA). […]

[3] = system: high fat diet (HFD) rabbit model of metabolic-associated steatohepatitis (MASH); test: HFD rabbit study, acute 5-day treatment: liver histomorphology (Giemsa, Masson's trichrome, PSR, SHG); assay type: in vivo, New Zealand White rabbits; details: 30 mg/kg p.o. 5 days, week 12; for Ballooning score 0 (no ballooning), share of animals / Ballooning score 1 (few ballooned cells), share of animals / Ballooning score 2 (prominent ballooning), share of animals / Fibrosis (Ishak Score) 0, share of animals / Fibrosis (Ishak Score) 1, share of animals / Fibrosis (Ishak Score) 2, share of animals / Fibrosis (Ishak Score) 3, share of animals / Fibrosis (Ishak Score) 4, share of animals / Fibrosis (Ishak Score) 5, share of animals / Inflammation score 0 (no foci), share of animals / Inflammation score 1 (<2 foci), share of animals / Inflammation score 2 (2–4 foci), share of animals / Inflammation score 3 (> 4 foci), share of animals: n = 3
Description: as §1
Liver specimens were fixed in 10% buffered formalin (Sigma-Aldrich Corp., St. Louis, MO), paraffin embedded and sectioned at a thickness of 5 μm with a microtome. The slides were stained with hematoxylin and eosin (H&E; both Bio-Optica, Milan, Italy), following standard protocols for histological analysis, to evaluate the general morphology and tissue structure, and then analyzed to evaluate inflammation and […] using Giemsa and Masson’s trichrome staining, respectively. Briefly, deparaffinized and rehydrated sections were incubated with Giemsa (Bio-Optica) in distilled water at ratio 1:1 or with Masson’s trichrome (Bio-Optica), following the manufacturer’s instructions, as previously described ([Vignozzi et al., 2014]). To evaluate lipid accumulation, liver specimens were also cryosectioned at a thickness of 8 μm, fixed with 4% paraformaldehyde, treated for 2–5 min with isopropanol and stained with Oil Red O (Bio-Optica) for 20 min, following the manufacturer’s instructions.
In liver, collagen content evaluation for fibrosis grade and quantification was conducted by staining using Picrosirius Red Stain kit (Bio-Optica), as per manufacturer’s instructions. Briefly, deparaffinized and rehydrated sections were incubated with the staining solution for 50 min, rinsed with the appropriate reagents and with distilled water, dehydrated through ascending alcohols and xylene, and mounted, as previously described ([Comeglio et al., 2017]).
Blinded images of unstained sections of liver were acquired using a Genesis®200 imaging system (HistoIndex, Singapore) and analyzed by Second Harmonic Generation (SHG) microscopy to visualize collagen and Two-Photon Excitation Fluorescence (TPEF) microscopy to visualize the other tissue structures as previously described ([Liu et al., 2017]).
Briefly, deparaffinized tissue sections were imaged by SHG at 780 nm (specific to collagen-1 and -3) simultaneously with TPEF at 780 nm (collected at 550 nm to visualize tissue structure). Both were captured at a ×20 objective and […] resolution. A specialized artificial intelligence analysis program developed by, and proprietary to, HistoIndex were employed to identify and quantify collagen fibres across liver regions with outputs highlighted below and as previously described ([Liu et al., 2017]): • SHG Overall Area (Percentage of total collagen in overall region). • Strings Overall N. (Number of collagen strings in overall region). • Strings Overall Length (Total length of all collagen strings in overall region). • Strings PT Area (Total area of all collagen strings in portal tract region). • Strings PT Length (Total length of all collagen strings in portal tract region). • Strings PS Area (Total area of all collagen strings in peri-sinusoidal region). • Strings PS Length (Total length of all collagen strings in peri-sinusoidal region).
The grading system for inflammation enumerated the number of foci in each 200x field assessed, according to [Kleiner et al. (2005)]: 0 = no foci; 1 = <2 foci; 2 = 2–4 foci; 3 => 4 foci. As shown in the contingency table (Table 3), statistically higher scoring grades were recorded in the HFD+1W Veh group, compared to RD+1W Veh and HFD + 1W 30 mg (both p < 0.05). […]

[4] = HFD rabbits, p < 0.001 vs. HFD + 1W Veh

Question: For OC[C@H]1O[C@H](Sc2cncc(Br)c2)[C@H](O)[C@@H](n2cc(-c3cc(F)c(F)c(F)c3)nn2)[C@H]1O [selvigaltin], which “steady state systemic plasma drug concentration vs rabbit galectin-3 binding KD” value ([1]; 30 mg/kg/day p.o., acute treatment) is on record?
Answer: Its value is ~40 fold.

Question: What about the “plasma exposure in HFD+1W 30 mg vs RD+1W 30 mg” value ([1]; day 4 of treatment, 30 mg/kg p.o.) of the same molecule?
Answer: Its value is “marginal increase in exposure”.

Question: And the Kp at 4 weeks [2]?
Answer: Its Kp at 4 weeks is 50 to 60.

Question: And the “Ballooning score 0 (no ballooning), share of animals” value ([3]; HFD rabbits)?
Answer: Its value is 0.0%.

Question: What about the “Ballooning score 1 (few ballooned cells), share of animals” value ([3]; HFD rabbits) of the same molecule?
Answer: Its value is 66.7%.

Question: And the “Ballooning score 2 (prominent ballooning), share of animals” value ([3]; HFD rabbits)?
Answer: Its value is 33.3%.

Question: What about the “Fibrosis (Ishak Score) 0, share of animals” value ([3]; HFD rabbits) of the same molecule?
Answer: The value was 0.0%.

Question: What about the “Fibrosis (Ishak Score) 1, share of animals” value ([3]; HFD rabbits) of the same molecule?
Answer: The value was 0.0%.

Question: What about the “Fibrosis (Ishak Score) 2, share of animals” value ([3]; HFD rabbits) of the same molecule?
Answer: The value was 33.3%.

Question: And the “Fibrosis (Ishak Score) 3, share of animals” value ([3]; HFD rabbits)?
Answer: The value was 66.7%.

Question: What about the “Fibrosis (Ishak Score) 4, share of animals” value ([3]; HFD rabbits) of the same molecule?
Answer: Its value is 0.0%.

Question: And the “Fibrosis (Ishak Score) 5, share of animals” value ([3]; HFD rabbits)?
Answer: The value was 0.0%.

Question: What about the “Inflammation score 0 (no foci), share of animals” value ([3]; HFD rabbits) of the same molecule?
Answer: The value was 100.0%.

Question: And the “Inflammation score 1 (<2 foci), share of animals” value ([3]; HFD rabbits)?
Answer: The value was 0.0%.

Question: And the “Inflammation score 2 (2–4 foci), share of animals” value ([3]; HFD rabbits)?
Answer: The value was 0.0%.

Question: What about the “Inflammation score 3 (> 4 foci), share of animals” value ([3]; HFD rabbits) of the same molecule?
Answer: Its value is 0.0%.

Question: And the “Picrosirius Red percentage of fibrosis area” value [3, 4]?
Answer: Its value is “significantly reduced fibrosis to RD levels”.

Question: And the “SHG percentage of fibrosis area” value [3, 4]?
Answer: Its value is “normalized”.

Question: What about the “Ballooning score 0 (no ballooning), share of animals” value ([3]; RD rabbits) of the same molecule?
Answer: The value was 100.0%.

Question: What about the “Ballooning score 1 (few ballooned cells), share of animals” value ([3]; RD rabbits) of the same molecule?
Answer: Its value is 0.0%.

Question: What about the “Ballooning score 2 (prominent ballooning), share of animals” value ([3]; RD rabbits) of the same molecule?
Answer: The value was 0.0%.

Question: And the “Fibrosis (Ishak Score) 0, share of animals” value ([3]; RD rabbits)?
Answer: Its value is 0.0%.

Question: And the “Fibrosis (Ishak Score) 1, share of animals” value ([3]; RD rabbits)?
Answer: The value was 0.0%.

Question: And the “Fibrosis (Ishak Score) 2, share of animals” value ([3]; RD rabbits)?
Answer: The value was 33.3%.

Question: And the “Fibrosis (Ishak Score) 3, share of animals” value ([3]; RD rabbits)?
Answer: Its value is 66.7%.

Question: What about the “Fibrosis (Ishak Score) 4, share of animals” value ([3]; RD rabbits) of the same molecule?
Answer: The value was 0.0%.

Question: And the “Fibrosis (Ishak Score) 5, share of animals” value ([3]; RD rabbits)?
Answer: The value was 0.0%.

Question: What about the “Inflammation score 0 (no foci), share of animals” value ([3]; RD rabbits) of the same molecule?
Answer: The value was 66.7%.

Question: And the “Inflammation score 1 (<2 foci), share of animals” value ([3]; RD rabbits)?
Answer: The value was 33.3%.

Question: What about the “Inflammation score 2 (2–4 foci), share of animals” value ([3]; RD rabbits) of the same molecule?
Answer: Its value is 0.0%.

Question: What about the “Inflammation score 3 (> 4 foci), share of animals” value ([3]; RD rabbits) of the same molecule?
Answer: The value was 0.0%.
